Reference: patent publication US20260183303A1, “PDK1 REGULATORY COMPOUND AND COMPOSITION CONTAINING THE SAME” (PROVIBIO CO., LTD., priority 2024, published 2026)

System: T cells isolated from mouse spleens
Assay: T cell proliferation inhibition (CFSE flow cytometry, anti-CD3/anti-CD28 activation)
Type: cell-based, C57BL/6 mice
Conditions: mouse spleen T cells, CD3/CD28 activated, cultured three days
Experimental: To verify the T cell proliferation inhibitory effect of the compounds according to the present invention, the following experiment was performed based on flow cytometry analysis using carboxyfluorescein diacetate succinimidyl ester (CFSE), a fluorescent dye that binds to intracellular molecules via covalent bonds.
Spleens were extracted from 7-week-old C57BL/6 mice, ground, and then separated into single cells using a strainer ([…], SPL). Red blood cells were removed using ACK (Ammonium-Chloride-Potassium) lysis buffer to isolate white blood cells.
Finally, using a MACS Magnetic Stand and LS column, T cells were isolated from the spleen.
The T cells isolated from the spleen were resuspended in 1 mL of free medium (RPMI-1640+200 U/mL penicillin+200 μg/mL streptomycin), and 0.3 μL of CFSE (10 mM) was added. The mixture was incubated at 37° C. for 5 minutes.
Free medium (10 mL) was added to stop the reaction, and the cells were centrifuged to obtain the cell pellet.
RPMI 1640 medium containing 10% FBS, 100 U/mL penicillin, 100 μg/mL streptomycin, and resuspended the cells. The cells were then seeded into a 96-well plate at a density of 2×10^5 cells per well and activated with CD3 and CD28 antibodies ([…]) to activate T cells.
The compound diluted in DMSO was added at concentrations of 10 nM, 100 nM, 1 μM, […], 30 μM, and 50 µM, with three wells per concentration, and cultured at 37° C. and 5% CO2 for three days. The cells were then analyzed using a FACS Canto instrument.
The proliferation inhibition rate (%) was calculated using the following formula: […]

Row | SMILES | Proliferation inhibition rate (%) (1 μM) | Proliferation inhibition rate (%) (10 μM) | Proliferation inhibition rate (%) (30 μM) | Proliferation inhibition rate (%) (50 μM) | Proliferation inhibition rate (%) (10 nM, listed as PBK-2024-024, 0.01 µM) | Proliferation inhibition rate (%) (100 nM) | Proliferation inhibition rate (%) (10 nM) | Proliferation inhibition rate (%) (10 nM, listed as PBK-2024-004, 0.01 µM) | Proliferation inhibition rate (%) (100 nM, listed as PBK-2024-004, 0.1 µM) | Proliferation inhibition rate (%) (1 μM, listed as PBK-2024-004, 1 µM) | Proliferation inhibition rate (%) (10 μM, listed as PBK-2024-004, 10 µM) | Proliferation inhibition rate (%) (10 nM, listed as K-PB-48, 0.01 µM)
1 | Nc1ncccc1C(=O)NCCCCCCCCCCCCN1CCN(C=O)CC1 [Compound 97, 2-amino-N-(12-(4-formylpiperazin-1-yl)dodecyl) nicotinamide] | 100.00 | 100.00 | 100.00 | 100.00 |  |  |  |  |  |  |  | 
2 | Nc1ncccc1C(=O)NCCCCCCCCCCCCN1CCC2CCCCC2C1 (stereo not shown) [Compound 16, 2-Amino-N-(12-(Octahydroisoquinolin-2(1H)-Yl)Dodecyl) Nicotinamide] | 100.00 | 100.00 | 100.00 | 100.00 |  |  |  |  |  |  |  | 
3 | COC1CCN(CCCCCCCCCCCCNC(=O)c2cccnc2N)C1 (stereo not shown) [Compound 32, 2-Amino-N-(12-(3-methoxypyrrolidin-1-yl)dodecyl) nicotinamide] |  |  |  | 100.00 | 0.29 |  |  |  |  |  |  | 
4 | CC1CCCN(CCCCCCCCCCCCNC(=O)c2cccnc2N)CC1 (stereo not shown) [Compound 39, 2-Amino-N-(12-(4-methylazepan-1-yl)dodecyl) nicotinamide] | 100.00 | 100.00 | 100.00 | 100.00 |  | 100.00 |  |  |  |  |  | 
5 | CN1CCN(CCCCCCCCCCCCNC(=O)c2cccnc2F)CC1 [Compound 121, 2-fluoro-N-(12-(4-methylpiperazin-1-yl)dodecyl) nicotinamide] | 0.00 | 30.00 | 100.00 | 100.00 |  | 0.00 | 0.00 |  |  |  |  | 
6 | Nc1ncccc1C(=O)NCCCCCCCCCCCCN1CCc2ccccc2C1 [Compound 17, 2-Amino-N-(12-(3,4-dihydroisoquinolin-2(1H)-yl)dodecyl) nicotinamide] |  |  |  |  |  |  |  | 0.00 | −14.00 | 100.00 | 100.00 | 
7 | CC1(C)CCN(CCCCCCCCCCCCNC(=O)c2cccnc2N)C1 [Compound 22, 2-Amino-N-(12-(3,3-dimethylpyrrolidin-1-yl)dodecyl) nicotinamide] | 100.00 | 100.00 | 100.00 | 100.00 |  | 100.00 | −0.80 |  |  |  |  | 
8 | CC(C)(C)OC(=O)N1CCN(CCCCCCCCCCCCNC(=O)c2cccnc2N)CC1 [Compound 111, tert-butyl-4-(12-(2-aminonicotinamido)dodecyl) piperazine-1-carboxylate] | 100.00 | 100.00 | 100.00 | 100.00 |  | 100.00 | 0.00 |  |  |  |  | 
9 | Nc1ncccc1C(=O)NCCCCCCCCCCCCNC1CCOC1 (stereo not shown) [Compound 128, 2-amino-N-(12-((tetrahydrofuran-3-yl)amino)dodecyl) nicotinamide] | 100.00 | 100.00 | 100.00 | 100.00 |  | 100.00 |  |  |  |  |  | 
10 | CC(C)N1CCN(CCCCCCCCCCCCNC(=O)c2cccnc2N)CC1 [Compound 104, 2-Amino-N-(12-(4-isopropylpiperazin-1-yl)dodecyl) nicotinamide] | 100.00 | 100.00 | 100.00 | 100.00 |  | 100.00 | 100.00 |  |  |  |  | 
11 | Nc1ncccc1C(=O)NCCCCCCCCCCCCN1CCOC1=O [Compound 127, 2-amino-N-(12-(2-oxooxazolidin-3-yl)dodecyl) nicotinamide] |  | 100.00 | 100.00 | 100.00 |  |  |  |  |  |  |  | 
12 | Nc1ncccc1C(=O)NCCCCCCCCCCCCN1CCN(C(=O)C2CC2)CC1 [Compound 99, 2-amino-N-(12-(4-(cyclopropanecarbonyl)piperazin-1-yl)dodecyl) nicotinamide] | 100.00 | 100.00 | 100.00 | 100.00 |  | 100.00 | −12.13 |  |  |  |  | 
13 | CC(C)(C)OC(=O)NC1CCN(CCCCCCCCCCCCNC(=O)c2cccnc2N)CC1 [Compound 101, tert-Butyl (1-(12-(2-aminonicotinamido)dodecyl)piperidin-4-yl) carbamate] | 100.00 | 100.00 | 100.00 | 100.00 |  | 100.00 | −0.15 |  |  |  |  | 
14 | Nc1ncccc1C(=O)NCCCCCCCCCCCCn1ccc2c(Cl)c(I)cnc21 [Compound 109, 2-Amino-N-(12-(4-chloro-5-iodo-1H-pyrrolo[2,3-b]pyridin-1-yl)dodecyl) nicotinamide] | 20.91 | 100.00 | 100.00 | 100.00 |  | 8.48 | 0.15 |  |  |  |  | 
15 | CN(CCCCCCCCCCCCNC(=O)c1cccnc1N)C(C)(C)C [Compound 53, 2-Amino-N-(12-(tert-butyl(methyl)amino)dodecyl) nicotinamide] | 100.00 | 100.00 | 100.00 | 100.00 |  | 100.00 |  |  |  |  |  | 
16 | Nc1ncccc1C(=O)NCCCCCCCCCCCCN1CCN(CCO)CC1 [Compound 54, 2-Amino-N-(12-(4-(2-hydroxyethyl)piperazin-1-yl)dodecyl) nicotinamide] | 100.00 | 100.00 | 100.00 | 100.00 |  | 100.00 |  |  |  |  |  | 
17 | Nc1ncccc1C(=O)NCCCCCCCCCCCCN1CC=CC1 [Compound 129, 2-amino-N-(12-(2,5-dihydro-1H-pyrrol-1-yl)dodecyl) nicotinamide] | 100.00 | 100.00 | 100.00 | 100.00 |  | 90.00 | 0.00 |  |  |  |  | 
18 | COC1CCN(CCCCCCCCCCCCNC(=O)c2cccnc2N)C1 (stereo not shown) [Compound 126, 2-amino-N-(12-(3-methoxypyrrolidin-1-yl)dodecyl) nicotinamide] | 100.00 | 100.00 | 100.00 | 100.00 |  | 100.00 |  |  |  |  |  | 0.00
